Tested on: 188146-221-R-J1-PDC complex spheroid viability
Assay: Anticancer human tumor 188146-221-R-J1-PDC patient-derived colon adenocarcinoma cell line growth inhibition [POLQ]
Details: for IC50: curve of first compound; for viability, T/C: stronger effect = lower value
Method in brief: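 Patient-derived tumour cells were co-cultured with HUVEC and mesenchymal stem cells as multicellular spheroids at 37 °C. They were treated with POLQ inhibitors (novobiocin, ART-558, RP6685) alone or combined with other agents. Top concentrations were at or near clinical Cmax (otherwise 10 microM; SN-38 at 1 microM), decreasing in half-log steps.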

[1] = second compound 0.0316 µM, first compound 0.0316 µM
[2] = second compound 0.0316 µM, first compound 0.1 µM
[3] = second compound 0.0316 µM, first compound 0.316 µM
[4] = second compound 0.0316 µM, first compound 1 µM
[5] = second compound 0.0316 µM, first compound 3.16 µM
[6] = second compound 0.0316 µM, first compound 10 µM
[7] = second compound 0.1 µM, first compound 0.0316 µM
[8] = second compound 0.1 µM, first compound 0.1 µM
[9] = second compound 0.1 µM, first compound 0.316 µM
[10] = second compound 0.1 µM, first compound 1 µM
[11] = second compound 0.1 µM, first compound 3.16 µM
[12] = second compound 0.1 µM, first compound 10 µM
[13] = second compound 0.316 µM, first compound 0.0316 µM
[14] = second compound 0.316 µM, first compound 0.1 µM
[15] = second compound 0.316 µM, first compound 0.316 µM
[16] = second compound 0.316 µM, first compound 1 µM
[17] = second compound 0.316 µM, first compound 3.16 µM
[18] = second compound 0.316 µM, first compound 10 µM
[19] = second compound 1 µM, first compound 0.0316 µM
[20] = second compound 1 µM, first compound 0.1 µM
[21] = second compound 1 µM, first compound 0.316 µM
[22] = second compound 1 µM, first compound 1 µM
[23] = second compound 1 µM, first compound 3.16 µM
[24] = second compound 1 µM, first compound 10 µM
[25] = second compound 3.16 µM, first compound 0.0316 µM
[26] = second compound 3.16 µM, first compound 0.1 µM
[27] = second compound 3.16 µM, first compound 0.316 µM
[28] = second compound 3.16 µM, first compound 1 µM
[29] = second compound 3.16 µM, first compound 3.16 µM
[30] = second compound 3.16 µM, first compound 10 µM
[31] = second compound 10 µM, first compound 0.0316 µM
[32] = second compound 10 µM, first compound 0.1 µM
[33] = second compound 10 µM, first compound 0.316 µM
[34] = second compound 10 µM, first compound 1 µM
[35] = second compound 10 µM, first compound 3.16 µM
[36] = second compound 10 µM, first compound 10 µM
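Also: spheroids exposed to compounds for seven days.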
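For viability, T/C in this document: 100% = DMSO vehicle control viability.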

`CCc1cc2c(N3CCc4c(cc(Cn5ccnc5)cc4-c4cn(C)nc4C(F)(F)F)C3=O)cc(C)nc2c(OC)n1` + Nc1ccc(C#CCN(C(=O)Cc2ncc(C(F)(F)F)cc2C(F)(F)F)c2ccc(F)cc2)nn1 showed an IC50 (second compound 0.0316 µM) of 8.54 µM, an IC50 (second compound 0.1 µM) of 7.95 µM and an IC50 (second compound 0.316 µM) of 6.94 µM. It also gave an IC50 (second compound 1 µM) of over 10 µM, an IC50 (second compound 3.16 µM) of 7.01 µM and an IC50 (second compound 10 µM) of 8.08 µM. It also gave a viability, T/C [1] of 89.1%, a viability, T/C [2] of 101% and a viability, T/C [3] of 74.4%. It also gave a viability, T/C [4] of 85.7%, a viability, T/C [5] of 71.2% and a viability, T/C [6] of 46.3%. For the same compound, the viability, T/C [7] was 119%, the viability, T/C [8] was 101% and the viability, T/C [9] was 103%. It also gave a viability, T/C [10] of 95%, a viability, T/C [11] of 66% and a viability, T/C [12] of 46%. The viability, T/C [13] was 120%, the viability, T/C [14] was 101% and the viability, T/C [15] was 94%. For the same compound, the viability, T/C [16] was 103%, the viability, T/C [17] was 66.1% and the viability, T/C [18] was 40.8%. It also gave a viability, T/C [19] of 107%, a viability, T/C [20] of 96.3% and a viability, T/C [21] of 104%. It also gave a viability, T/C [22] of 95.2%, a viability, T/C [23] of 85.5% and a viability, T/C [24] of 50.4%. It also gave a viability, T/C [25] of 111%, a viability, T/C [26] of 115% and a viability, T/C [27] of 109%. It also gave a viability, T/C [28] of 85.8%, a viability, T/C [29] of 68.8% and a viability, T/C [30] of 42.1%. It also gave a viability, T/C [31] of 93.7%, a viability, T/C [32] of 102% and a viability, T/C [33] of 99%. It also gave a viability, T/C [34] of 84.8%, a viability, T/C [35] of 69.5% and a viability, T/C [36] of 45.6%.
Compound `CC(C)n1c(=O)n(C)c2cnc3cc(F)c(-c4ccc(OCCCN5CCCCC5)nc4)cc3c21` + Cc1cccc(N(C)C(=O)C2C(O)CCN2c2nc(C)cc(C(F)(F)F)c2C#N)c1 has an IC50 (second compound 0.0316 µM) of over 10 µM, an IC50 (second compound 0.1 µM) of over 10 µM and an IC50 (second compound 0.316 µM) of over 10 µM. For the same compound, the IC50 (second compound 1 µM) was over 10 µM, the IC50 (second compound 3.16 µM) was over 10 µM and the IC50 (second compound 10 µM) was over 10 µM. It also gave a viability, T/C [1] of 110%, a viability, T/C [2] of 97.9% and a viability, T/C [3] of 100%. For the same compound, the viability, T/C [4] was 106%, the viability, T/C [5] was 102% and the viability, T/C [6] was 83.7%. The viability, T/C [7] was 109%, the viability, T/C [8] was 98.5% and the viability, T/C [9] was 107%. It also gave a viability, T/C [10] of 113%, a viability, T/C [11] of 90.5% and a viability, T/C [12] of 89.1%. It also gave a viability, T/C [13] of 108%, a viability, T/C [14] of 115% and a viability, T/C [15] of 98.7%. For the same compound, the viability, T/C [16] was 100%, the viability, T/C [17] was 85.4% and the viability, T/C [18] was 85.9%. It also gave a viability, T/C [19] of 111%, a viability, T/C [20] of 107% and a viability, T/C [21] of 104%. It also gave a viability, T/C [22] of 93%, a viability, T/C [23] of 88.6% and a viability, T/C [24] of 86.5%. For the same compound, the viability, T/C [25] was 103%, the viability, T/C [26] was 104% and the viability, T/C [27] was 100%. It also gave a viability, T/C [28] of 82%, a viability, T/C [29] of 99.6% and a viability, T/C [30] of 81.8%. The viability, T/C [31] was 91.6%, the viability, T/C [32] was 85.8% and the viability, T/C [33] was 101%. For the same compound, the viability, T/C [34] was 97.4%, the viability, T/C [35] was 93.7% and the viability, T/C [36] was 95%.
In the case of `CCc1cc2c(N3CCc4c(cc(Cn5ccnc5)cc4-c4cn(C)nc4C(F)(F)F)C3=O)cc(C)nc2c(OC)n1` + COC1C(OC(N)=O)C(O)C(Oc2ccc3c(O)c(NC(=O)c4ccc(O)c(CC=C(C)C)c4)c(=O)oc3c2C)OC1(C)C, the IC50 (second compound 0.0316 µM) is reported as 7.26 µM, the IC50 (second compound 0.1 µM) is reported as over 10 µM and the IC50 (second compound 0.316 µM) is reported as 9.01 µM. For the same compound, the IC50 (second compound 1 µM) was over 10 µM, the IC50 (second compound 3.16 µM) was over 10 µM and the IC50 (second compound 10 µM) was 6.16 µM. It also gave a viability, T/C [1] of 112%, a viability, T/C [2] of 102% and a viability, T/C [3] of 92.1%. The viability, T/C [4] was 88.1%, the viability, T/C [5] was 66.3% and the viability, T/C [6] was 42.8%. The viability, T/C [7] was 108%, the viability, T/C [8] was 101% and the viability, T/C [9] was 97.7%. The viability, T/C [10] was 85.4%, the viability, T/C [11] was 66.4% and the viability, T/C [12] was 55.9%. For the same compound, the viability, T/C [13] was 106%, the viability, T/C [14] was 108% and the viability, T/C [15] was 105%. It also gave a viability, T/C [16] of 83.3%, a viability, T/C [17] of 62.4% and a viability, T/C [18] of 48.2%. It also gave a viability, T/C [19] of 108%, a viability, T/C [20] of 108% and a viability, T/C [21] of 101%. It also gave a viability, T/C [22] of 83.2%, a viability, T/C [23] of 64.2% and a viability, T/C [24] of 53.2%. It also gave a viability, T/C [25] of 104%, a viability, T/C [26] of 114% and a viability, T/C [27] of 103%. The viability, T/C [28] was 89.2%, the viability, T/C [29] was 73.9% and the viability, T/C [30] was 51.1%. The viability, T/C [31] was 97.5%, the viability, T/C [32] was 98% and the viability, T/C [33] was 101%. The viability, T/C [34] was 78.5%, the viability, T/C [35] was 60.2% and the viability, T/C [36] was 43.2%.
Compound `CC1COCCN1c1cc(-c2ccnn2C)c2ccnc(-c3ccn[nH]3)c2n1` (stereo not drawn) + COC1C(OC(N)=O)C(O)C(Oc2ccc3c(O)c(NC(=O)c4ccc(O)c(CC=C(C)C)c4)c(=O)oc3c2C)OC1(C)C has an IC50 (second compound 0.0316 µM) of 0.207 µM, an IC50 (second compound 0.1 µM) of 0.175 µM and an IC50 (second compound 0.316 µM) of 0.193 µM. It also gave an IC50 (second compound 1 µM) of 0.252 µM, an IC50 (second compound 3.16 µM) of 0.204 µM and an IC50 (second compound 10 µM) of 0.159 µM. For the same compound, the viability, T/C [1] was 81.5%, the viability, T/C [2] was 67.3% and the viability, T/C [3] was 39.3%. The viability, T/C [4] was 23.3%, the viability, T/C [5] was 16.3% and the viability, T/C [6] was 14%. It also gave a viability, T/C [7] of 94.2%, a viability, T/C [8] of 57.8% and a viability, T/C [9] of 44.5%. The viability, T/C [10] was 21.3%, the viability, T/C [11] was 18.1% and the viability, T/C [12] was 14.1%. For the same compound, the viability, T/C [13] was 78.2%, the viability, T/C [14] was 66.3% and the viability, T/C [15] was 37.2%. The viability, T/C [16] was 22.4%, the viability, T/C [17] was 17.2% and the viability, T/C [18] was 13.3%. It also gave a viability, T/C [19] of 83.3%, a viability, T/C [20] of 74.2% and a viability, T/C [21] of 43.3%. It also gave a viability, T/C [22] of 22.9%, a viability, T/C [23] of 16.9% and a viability, T/C [24] of 13.2%. For the same compound, the viability, T/C [25] was 85.5%, the viability, T/C [26] was 61.6% and the viability, T/C [27] was 46.2%. It also gave a viability, T/C [28] of 19.4%, a viability, T/C [29] of 18.3% and a viability, T/C [30] of 14.1%. For the same compound, the viability, T/C [31] was 79.9%, the viability, T/C [32] was 54.5% and the viability, T/C [33] was 44.6%. It also gave a viability, T/C [34] of 19.9%, a viability, T/C [35] of 16.7% and a viability, T/C [36] of 17%.
